Where “and” joins values, the source holds several entries; their conditions need not be identical. Identical values can stand only once. Like-named read-outs stand apart in the source and are kept apart here.

One test deals with T1, 5-HT2A (Homo sapiens, UniProt P28223).
T1 construct: expressed in transfected cells
The experiment in a line: G-protein-dependent signal transduction, intracellular Ca2+ mobilization. It counts as cell-based. To be noted: for IC50: Ca2+ mobilization, read-out: IC50, functional antagonist. The protocol:
(§1) Quantitation was based on peak area ratio of the analytes versus their stable labeled internal standards. A weighted (1/C2), linear regression was performed to determine the concentration of the analytes. All regressions and figures presented in this validation report were generated by MDS Sciex Analyst version 1.4.2 and Thermo Electron Corporation Watson LIMS software, version 7.0.0.01b. […] Select receptors were analyzed in ligand-induced intracellular calcium mobilization.
For orientation: Calcium flux is commonly read through the fluorescence of an indicator in the cells.

The target of another test is T2, 5-HT2B (Homo sapiens, UniProt P41595).
T2 construct: expressed in transfected cells
The test is described as above. It counts as cell-based. The following applies: for IC50: Ca2+ mobilization, read-out: IC50, functional antagonist. The protocol: as §1

The target of another test is T3, 5-HT2C receptor (Homo sapiens, UniProt P28335).
T3 construct: expressed in transfected cells
T3 sequence (P28335 33-458): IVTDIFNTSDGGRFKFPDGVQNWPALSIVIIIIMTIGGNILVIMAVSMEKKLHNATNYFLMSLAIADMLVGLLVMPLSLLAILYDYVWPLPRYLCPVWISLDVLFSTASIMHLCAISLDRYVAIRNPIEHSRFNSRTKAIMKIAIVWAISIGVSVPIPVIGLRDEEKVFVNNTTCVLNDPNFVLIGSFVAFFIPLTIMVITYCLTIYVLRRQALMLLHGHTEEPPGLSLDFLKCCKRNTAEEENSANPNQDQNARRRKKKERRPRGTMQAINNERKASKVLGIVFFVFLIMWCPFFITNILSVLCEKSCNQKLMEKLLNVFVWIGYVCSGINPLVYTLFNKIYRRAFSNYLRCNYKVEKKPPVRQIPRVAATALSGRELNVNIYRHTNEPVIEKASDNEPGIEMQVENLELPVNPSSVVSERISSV
The description is as above. It counts as cell-based. The protocol: as §1

Test [1] addresses T4, adrenergic alpha-2A receptor (Alpha2A) (Homo sapiens, UniProt P08913).
T4 construct: expressed in transfected cells
T4 sequence (P08913 1-465): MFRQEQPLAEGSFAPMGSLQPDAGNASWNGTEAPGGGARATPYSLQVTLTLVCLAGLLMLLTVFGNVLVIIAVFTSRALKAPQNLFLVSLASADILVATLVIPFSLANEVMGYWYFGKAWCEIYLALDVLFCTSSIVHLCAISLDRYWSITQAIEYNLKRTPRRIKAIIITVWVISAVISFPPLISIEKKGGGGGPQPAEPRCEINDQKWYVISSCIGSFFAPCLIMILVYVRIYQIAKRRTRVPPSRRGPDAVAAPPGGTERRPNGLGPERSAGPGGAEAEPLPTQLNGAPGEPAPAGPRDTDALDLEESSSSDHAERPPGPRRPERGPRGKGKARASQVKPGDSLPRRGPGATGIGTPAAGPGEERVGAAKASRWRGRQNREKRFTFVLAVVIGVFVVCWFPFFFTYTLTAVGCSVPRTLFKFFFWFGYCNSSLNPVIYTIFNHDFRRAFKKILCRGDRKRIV
Nature of the test: Equilibrium receptor binding, recombinant human receptor.

Another test deals with T5, D3 (Homo sapiens, UniProt P35462).
T5 construct: expressed in transfected cells
Described as above.

The next test deals with T6, dopamine D1 receptor (Homo sapiens, UniProt P21728).
T6 construct: expressed in transfected cells
Nature of the test: G-protein-dependent signal transduction (Ca2+ mobilization, cAMP production or inositol triphosphate turnover). It is filed as cell-based. The following applies: for IC50: read-out: IC50 (nM) (Antagonist).

The next test concerns the target T7, muscarinic M1 receptor (Homo sapiens, UniProt P11229).
T7 sequence (P11229 1-460): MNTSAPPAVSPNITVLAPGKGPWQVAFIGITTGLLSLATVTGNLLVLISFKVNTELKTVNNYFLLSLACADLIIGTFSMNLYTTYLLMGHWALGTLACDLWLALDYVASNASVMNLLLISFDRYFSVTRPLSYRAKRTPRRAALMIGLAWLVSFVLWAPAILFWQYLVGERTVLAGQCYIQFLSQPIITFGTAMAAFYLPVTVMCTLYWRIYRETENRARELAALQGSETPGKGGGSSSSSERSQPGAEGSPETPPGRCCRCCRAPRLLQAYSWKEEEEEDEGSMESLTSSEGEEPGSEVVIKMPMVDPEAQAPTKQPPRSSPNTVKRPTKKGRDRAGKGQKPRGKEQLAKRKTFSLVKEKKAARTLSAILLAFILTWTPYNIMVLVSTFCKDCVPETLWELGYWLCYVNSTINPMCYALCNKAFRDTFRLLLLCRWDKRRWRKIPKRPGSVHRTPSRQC
Nature of the test: G-protein-independent signal transduction, β-arrestin signaling. The arrangement: expressed in transfected cells. It counts as cell-based. To be noted: for IC50: M1, β-arrestin signaling, read-out: IC50, functional antagonist.

The target in the next test is 5-HT6 (Homo sapiens, UniProt P50406). Nature of the test: Equilibrium receptor binding, recombinant human receptor. The arrangement: expressed in transfected cells.
The next test has as its target T8, 5-HT1A receptor (Homo sapiens, UniProt P08908).
T8 construct: expressed in transfected cells
T8 sequence (P08908 1-422): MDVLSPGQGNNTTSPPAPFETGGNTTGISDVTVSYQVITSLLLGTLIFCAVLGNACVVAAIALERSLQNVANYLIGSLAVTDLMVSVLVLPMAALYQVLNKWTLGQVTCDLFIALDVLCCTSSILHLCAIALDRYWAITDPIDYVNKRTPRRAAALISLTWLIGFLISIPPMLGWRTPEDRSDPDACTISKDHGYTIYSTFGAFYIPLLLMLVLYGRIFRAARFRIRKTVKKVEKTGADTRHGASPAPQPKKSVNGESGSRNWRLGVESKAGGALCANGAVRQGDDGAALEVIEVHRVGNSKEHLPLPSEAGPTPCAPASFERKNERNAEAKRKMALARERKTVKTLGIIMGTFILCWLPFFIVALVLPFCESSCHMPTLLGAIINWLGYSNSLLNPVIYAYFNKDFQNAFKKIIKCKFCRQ
The test is described as above.

The target in test [2] is T9, adrenergic alpha-2A receptor (Homo sapiens, UniProt P08913).
T9 construct: expressed in transfected cells
Nature of the test: Functional antagonism, ligand-induced intracellular calcium mobilization. The following applies: read-out: IC50, functional antagonist. It is filed as cell-based. Here is the method:
as §1

In another test the target is T10, D2S (Homo sapiens, UniProt P14416).
T10 construct: expressed in transfected cells
The experiment in a line: Equilibrium receptor binding, recombinant human receptor.

The target of the next test is α1B (Homo sapiens, UniProt P35368). The experiment in a line: Functional antagonism, G-protein-dependent signal transduction (Table 69).
Test [3] addresses T11, adrenergic α1B receptor (Alpha1B) (Homo sapiens, UniProt P35368).
T11 construct: expressed in transfected cells
Nature of the test: Equilibrium receptor binding, recombinant human receptor.

Test [4] concerns the target norepinephrine (NE) transporter (Homo sapiens, UniProt P23975). The experiment in a line: Equilibrium binding to transporters (FIG. 19). To be noted: Norepinephrine TP (transporter).
Setting [5] is: 5-HT2c, read-out: IC50, functional antagonist.

T6 sequence (P21728 whole entry): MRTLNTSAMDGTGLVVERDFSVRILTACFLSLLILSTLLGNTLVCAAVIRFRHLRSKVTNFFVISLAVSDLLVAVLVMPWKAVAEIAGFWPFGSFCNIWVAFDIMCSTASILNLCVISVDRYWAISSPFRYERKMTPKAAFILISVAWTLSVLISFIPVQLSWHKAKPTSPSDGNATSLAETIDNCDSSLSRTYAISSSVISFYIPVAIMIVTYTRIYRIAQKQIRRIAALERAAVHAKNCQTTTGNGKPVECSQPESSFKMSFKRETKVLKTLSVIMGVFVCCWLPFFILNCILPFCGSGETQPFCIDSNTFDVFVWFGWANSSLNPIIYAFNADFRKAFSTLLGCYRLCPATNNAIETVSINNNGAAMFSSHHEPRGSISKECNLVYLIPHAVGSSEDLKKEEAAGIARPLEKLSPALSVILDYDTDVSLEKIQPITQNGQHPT
T1 sequence (P28223 whole entry): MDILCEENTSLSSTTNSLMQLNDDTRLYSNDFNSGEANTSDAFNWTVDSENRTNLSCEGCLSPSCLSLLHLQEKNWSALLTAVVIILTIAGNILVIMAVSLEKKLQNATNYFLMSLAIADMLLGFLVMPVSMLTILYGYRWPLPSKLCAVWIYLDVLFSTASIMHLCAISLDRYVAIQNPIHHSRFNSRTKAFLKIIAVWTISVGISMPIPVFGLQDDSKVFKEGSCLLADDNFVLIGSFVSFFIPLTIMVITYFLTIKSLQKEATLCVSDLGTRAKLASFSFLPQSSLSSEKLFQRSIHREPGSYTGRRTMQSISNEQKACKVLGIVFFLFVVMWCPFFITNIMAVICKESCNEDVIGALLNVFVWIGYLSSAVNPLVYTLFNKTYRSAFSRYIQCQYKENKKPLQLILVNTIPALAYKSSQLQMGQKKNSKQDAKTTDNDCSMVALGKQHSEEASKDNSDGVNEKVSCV
T2 sequence (P41595 whole entry): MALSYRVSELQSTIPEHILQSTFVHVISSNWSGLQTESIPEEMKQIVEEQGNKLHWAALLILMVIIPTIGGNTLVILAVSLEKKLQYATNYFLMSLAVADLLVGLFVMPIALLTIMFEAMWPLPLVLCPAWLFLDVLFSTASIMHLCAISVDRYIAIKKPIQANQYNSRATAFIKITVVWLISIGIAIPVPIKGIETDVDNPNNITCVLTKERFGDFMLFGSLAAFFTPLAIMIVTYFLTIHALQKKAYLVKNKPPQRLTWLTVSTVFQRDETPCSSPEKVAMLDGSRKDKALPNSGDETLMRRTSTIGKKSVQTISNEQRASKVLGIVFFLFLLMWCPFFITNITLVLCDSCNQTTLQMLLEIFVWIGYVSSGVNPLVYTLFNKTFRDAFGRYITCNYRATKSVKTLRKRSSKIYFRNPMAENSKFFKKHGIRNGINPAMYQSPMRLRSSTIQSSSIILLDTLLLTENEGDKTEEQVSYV
T10 sequence (P14416 1-414 isoform P14416-2): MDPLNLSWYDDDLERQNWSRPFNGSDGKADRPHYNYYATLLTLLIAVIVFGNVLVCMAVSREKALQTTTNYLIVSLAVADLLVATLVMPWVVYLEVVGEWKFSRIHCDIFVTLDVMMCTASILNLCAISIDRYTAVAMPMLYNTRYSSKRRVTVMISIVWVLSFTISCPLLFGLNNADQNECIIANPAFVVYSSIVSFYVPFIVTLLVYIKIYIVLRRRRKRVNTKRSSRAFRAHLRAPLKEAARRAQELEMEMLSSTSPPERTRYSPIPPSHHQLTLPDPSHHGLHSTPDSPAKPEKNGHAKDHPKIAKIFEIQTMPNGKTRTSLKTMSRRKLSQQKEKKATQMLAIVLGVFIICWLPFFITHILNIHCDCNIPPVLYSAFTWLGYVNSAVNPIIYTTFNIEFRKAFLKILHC
Chain of norepinephrine (NE) transporter (P23975 whole entry): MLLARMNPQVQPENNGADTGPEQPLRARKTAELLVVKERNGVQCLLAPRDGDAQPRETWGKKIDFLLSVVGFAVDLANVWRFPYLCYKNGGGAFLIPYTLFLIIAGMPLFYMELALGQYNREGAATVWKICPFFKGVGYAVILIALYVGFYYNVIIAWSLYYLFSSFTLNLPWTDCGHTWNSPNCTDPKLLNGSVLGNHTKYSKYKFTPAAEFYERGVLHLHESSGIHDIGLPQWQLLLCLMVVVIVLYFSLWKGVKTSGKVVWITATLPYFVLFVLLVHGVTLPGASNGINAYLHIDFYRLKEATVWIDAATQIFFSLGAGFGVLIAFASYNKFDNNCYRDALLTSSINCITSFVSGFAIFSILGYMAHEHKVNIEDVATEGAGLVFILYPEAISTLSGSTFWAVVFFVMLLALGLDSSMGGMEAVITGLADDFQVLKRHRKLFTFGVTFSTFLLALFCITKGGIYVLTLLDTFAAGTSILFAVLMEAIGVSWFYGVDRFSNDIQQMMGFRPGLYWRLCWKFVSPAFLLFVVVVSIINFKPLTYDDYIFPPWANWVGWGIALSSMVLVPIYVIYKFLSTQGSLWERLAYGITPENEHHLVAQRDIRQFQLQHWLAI
T11 sequence (P35368 whole entry): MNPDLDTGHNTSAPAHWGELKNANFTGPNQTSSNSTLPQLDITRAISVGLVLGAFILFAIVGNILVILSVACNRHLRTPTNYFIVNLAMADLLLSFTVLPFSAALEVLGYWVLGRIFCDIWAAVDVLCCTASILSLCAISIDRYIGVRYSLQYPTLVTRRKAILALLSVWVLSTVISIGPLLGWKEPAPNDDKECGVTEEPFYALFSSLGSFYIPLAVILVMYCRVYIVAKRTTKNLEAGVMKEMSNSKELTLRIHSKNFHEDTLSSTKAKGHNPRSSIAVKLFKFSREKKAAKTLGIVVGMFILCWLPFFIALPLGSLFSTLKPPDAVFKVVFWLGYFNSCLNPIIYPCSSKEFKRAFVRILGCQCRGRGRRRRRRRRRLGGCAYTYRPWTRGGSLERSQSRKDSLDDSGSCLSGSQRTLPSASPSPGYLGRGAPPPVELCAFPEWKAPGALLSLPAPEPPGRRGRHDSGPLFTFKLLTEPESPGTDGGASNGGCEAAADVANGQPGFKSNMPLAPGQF
Chain of α1B (P35368 whole entry): as above
T5 sequence (P35462 whole entry): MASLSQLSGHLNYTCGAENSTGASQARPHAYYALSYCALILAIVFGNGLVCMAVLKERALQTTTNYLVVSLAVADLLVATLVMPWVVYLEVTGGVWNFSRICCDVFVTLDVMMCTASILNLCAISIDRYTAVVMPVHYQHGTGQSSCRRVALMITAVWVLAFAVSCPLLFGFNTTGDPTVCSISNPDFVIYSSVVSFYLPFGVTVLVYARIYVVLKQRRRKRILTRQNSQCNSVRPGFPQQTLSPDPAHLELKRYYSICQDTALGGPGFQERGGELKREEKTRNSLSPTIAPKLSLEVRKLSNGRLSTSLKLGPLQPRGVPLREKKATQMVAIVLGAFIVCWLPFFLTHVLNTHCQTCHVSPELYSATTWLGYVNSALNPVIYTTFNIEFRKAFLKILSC
Chain of 5-HT6 (P50406 whole entry): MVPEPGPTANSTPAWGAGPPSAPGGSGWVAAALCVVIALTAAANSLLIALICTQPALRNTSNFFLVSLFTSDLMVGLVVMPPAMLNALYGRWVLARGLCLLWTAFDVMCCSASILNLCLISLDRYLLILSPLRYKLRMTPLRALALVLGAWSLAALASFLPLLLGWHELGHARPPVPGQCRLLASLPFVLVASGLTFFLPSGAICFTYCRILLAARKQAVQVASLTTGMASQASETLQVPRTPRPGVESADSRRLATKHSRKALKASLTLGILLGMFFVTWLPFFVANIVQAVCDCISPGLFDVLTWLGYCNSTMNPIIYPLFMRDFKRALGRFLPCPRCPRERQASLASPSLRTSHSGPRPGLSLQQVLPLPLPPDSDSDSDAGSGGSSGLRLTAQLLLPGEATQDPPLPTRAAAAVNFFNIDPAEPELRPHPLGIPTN

Consider `CN(C)CCC=C1c2ccccc2C=Cc2ccccc21` [cyclobenzaprine, 3-(5H-dibenzo[a,d]cyclohepten-5-ylidene)-N,N-dimethyl-1-propanamine], for which the IC50 (in general, the point on the concentration scale where inhibition reaches its midpoint) at 5-HT2A was found to be 0.23 µM; on 5-HT2B, 0.1 µM; on 5-HT2C receptor (5-HT2C, read-out: IC50 (nM) (Antagonist)), 444 nM; at 5-HT2C receptor (setting [5]), 440 nM; on dopamine D1 receptor it was 65 nM; at muscarinic M1 receptor, 0.081 µM. Further, the values for the IC50 (in test [2]; on α1B) were 4.3 µM and 0.53 µM, respectively. The Ki (in general, a dissociation constant, usually derived from enzyme kinetics or from competition with a known ligand) turned out to be 0.36 µM in test [1]; 0.034 µM at D3; 0.48 µM at 5-HT6; 1.1 µM at 5-HT1A receptor; 0.12 µM on D2S; 0.0091 µM in [3]. In test [4], this molecule showed a Ki of 0.035 µM.

Turning to `CNCCC=C1c2ccccc2C=Cc2ccccc21` [norcyclobenzaprine, 3-(5H-dibenzo[a,d]cyclohepten-5-ylidene)-N-methyl-1-propanamine], the “Four parameter Hill slope (or fit slope) ratio; Ca2+ signaling” value on 5-HT2A was determined as 1.27; at 5-HT2B, 1.54; at 5-HT2C receptor (5-HT2C), 0.94; at dopamine D1 receptor, 0.98. The IC50 at 5-HT2A is 0.092 µM and 0.14 µM; at 5-HT2B it was 0.58 µM; at 5-HT2C receptor (setting [5]), 1220 nM; on dopamine D1 receptor, 300 nM; on muscarinic M1 receptor, 0.266 µM; in [2], 6.4 µM. Further, on α1B, the IC50 came out at 0.79 µM. Besides, the Ki in [1] was determined as 1.8 µM; at D3 it was 0.098 µM; at 5-HT6, 1.4 µM; at 5-HT1A receptor, 0.076 µM; on D2S, 0.41 µM; in test [3], 0.011 µM. Further, the Ki in test [4] worked out at 0.0026 µM. Besides, at muscarinic M1 receptor (M1), the “Four parameter Hill slope (or fit slope) ratio; β-arrestin signaling” value came out at 1.05. For the same molecule, the “Hill plot ratio (Hill slope)” value on 5-HT1A receptor (equilibrium binding) was found to be 4.07.

The record behind these values is US20260232578A1, “COMPOSITIONS AND METHODS FOR TRANSMUCOSAL ABSORPTION” (Tonix Pharma Limited, priority 2012, published 2026).
